# Assay results published in US10435399B2, “HDAC6 inhibitory heterocyclic compound” (TAKEDA PHARMACEUTICAL COMPANY LIMITED, priority 2017, dated 2019).
# System: liver and glandular stomach cells
# Assay: Comet assay in rats (liver and glandular stomach)
# Type: in vivo, rats (Crl:CD(SD))
# Details: rats, 1000 mg/kg and 2000 mg/kg once daily for 3 days
# Experimental: Combination Assay of Micronucleus Test and Comet Assay in Rats
# The compound of Example 489 at doses of 1000 and 2000 mg/kg was orally administered to 8 to 9-week-old rats (Crl:CD(SD), five/group) once daily for 3 days, and micronucleus induction was evaluated in bone-marrow cells, and DNA damage was evaluated by DNA fragmentation of cell nucleus in the liver and glandular stomach.
# Sample for comet assay was obtained from liver and glandular stomach by the following procedures. A part of left lateral lobe of liver was washed well with a cooled mincing buffer solution (Hanks' balanced salt solution containing 20 mmol/L EDTA and 10 vol % DMSO, pH7.5), and minced finely with dissecting scissors. This sample was kept on ice for 15 to 30 seconds, the precipitated large cell mass was removed, and the obtained cell suspension was kept on ice. Glandular stomach was added to a cooled mincing buffer solution, and kept on ice for 15 to 30 min. Then, the surface epithelium was removed by scraping gently twice, the stomach mucosa was washed well with a cooled mincing buffer solution, and the mucosa surface was taken out by scraping carefully four times or five times. This was kept on ice for 15 to 30 seconds, the precipitated large cell mass was removed, and the obtained cell suspension was kept on ice.
# The liver and glandular stomach cell suspensions prepared by the above-mentioned procedures were added to 0.5 w/v % low-melting agarose so that the concentration became 10 vol % or less, 40 μL of the suspension was dropped to MAS-coated slide (Matsunami Glass Ind., Ltd.), and fixed to give a slide sample. The slide sample was immersed in a cooled cell lysate [an aqueous solution containing 2.5 mol/L sodium chloride, 100 mmol/L EDTA, 10 mmol/L tris(hydroxymethyl)aminomethane, 10 vol % DMSO and 1 vol % Triton X-100, pH 10.0], and kept overnight under light shielding in a refrigerator (2 to 8° C.).
# The slide sample was washed with ultrapure water, set at random into an electrophoresis apparatus filled with an alkali buffer solution (an aqueous solution containing 0.3 mol/L sodium hydroxide and 1 mmol/L EDTA, pH >13) for electrophoresis. After confirming that the sample was completely immersed, the sample was left for 20 min to unwind the strands. Next, electrophorese was performed at a constant voltage of 0.7 to 1 V/cm (current is set about 0.30 A) for 20 min (the electrophoresis apparatus was kept on ice so that the alkali buffer solution for electrophoresis was kept at a constant temperature of 10° C. or below, during from the dissociation of the strands to electrophoresis). After electrophoresis, the slide sample was immersed in a neutralizing solution [0.4 mol/L aqueous tris(hydroxymethyl)aminomethane solution, pH 7.5] for 5 min or longer. Then, the slide sample was immersed in ethanol for 5 min or longer, and air-dried. […] The slide samples for negative control, test compound and positive control groups were encoded, and analyzed by the blind method. In each individual animal, 150 of suitable cells were selected for observation using a biological microscope with fluorescence attachment at 200-fold final magnification, and analyzed by image analysis software (Comet Assay IV, Perceptive Instruments Ltd.). The degree of the DNA damage was evaluated by % tail intensity calculated automatically from image analysis software. The median of the % tail intensity was calculated in each slide sample, and the average of the median was calculated in each individual. […]
smiles,measurement,value
"O=C1c2cc(-c3nnc(C(F)F)o3)cnc2CN1[C@@H]1CCCC[C@H]1NC(=O)C(F)(F)C(F)(F)F [Example 489, N-((1R,2R)-2-(3-(5-(difluoromethyl)-1,3,4-oxadiazol-2-yl)-5-oxo-5,7-dihydro-6H-pyrrolo[3,4-b]pyridin-6-yl)cyclohexyl)-2,2,3,3,3-pentafluoropropanamide]",DNA strand breakage in liver and glandular stomach cells,not induced
